Measurements as given in ChEMBL document CHEMBL1201862, “PubChem BioAssay data set” (2004).
The source made the active and inactive calls. Cut-off read from the data, not from the text of the source, for most assays here: actives have a measured EC50 and inactives only a lower limit.

Tests used:
[1] = molecular target: Luciferin 4-monooxygenase (Photinus pyralis, UniProt P08659); experiment: Counter Screen for Luciferase-based Assay Positives. [Related pubchem assays: 620, 618, 411 ]
[2] = inhibitors of SNCA 5'UTR-driven reporter translation, confirmation, H4 neuroglioma cells, luminescence (AID 1988); format: functional, cell-based
[3] = Luminescence Cell-Based Dose Response HTS to Identify Inhibitors of 5'UTR Stem-Loop Driven Prion Protein mRNA Translation in H4 Neuroglioblastoma Cells. [Related pubchem assays: 1827 (Project Summary), 1813 (Primary HTS)]; format: functional
HT-1080 = experiment: cytotoxicity in HT1080 fibrosarcoma cells, cell-based, fluorescence readout (AID 620); format: functional; conditions: Homo sapiens
[4] = molecular target: T1, Heat shock factor protein 1 (Mus musculus, UniProt P38532); experiment: HSF1 potentiators in luciferase reporter cells, confirmation, cell-based, NIH3T3, luminescence, dose retest (AID 435004); format: functional;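 note: stress induced by proteasome inhibitor MG132 added 30 min after compound; luciferase reporter driven by HSF1 response element in NIH3T3 cells; actives raise luminescence as potentiators of the MG132 stress response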
T1 sequence (P38532 whole entry): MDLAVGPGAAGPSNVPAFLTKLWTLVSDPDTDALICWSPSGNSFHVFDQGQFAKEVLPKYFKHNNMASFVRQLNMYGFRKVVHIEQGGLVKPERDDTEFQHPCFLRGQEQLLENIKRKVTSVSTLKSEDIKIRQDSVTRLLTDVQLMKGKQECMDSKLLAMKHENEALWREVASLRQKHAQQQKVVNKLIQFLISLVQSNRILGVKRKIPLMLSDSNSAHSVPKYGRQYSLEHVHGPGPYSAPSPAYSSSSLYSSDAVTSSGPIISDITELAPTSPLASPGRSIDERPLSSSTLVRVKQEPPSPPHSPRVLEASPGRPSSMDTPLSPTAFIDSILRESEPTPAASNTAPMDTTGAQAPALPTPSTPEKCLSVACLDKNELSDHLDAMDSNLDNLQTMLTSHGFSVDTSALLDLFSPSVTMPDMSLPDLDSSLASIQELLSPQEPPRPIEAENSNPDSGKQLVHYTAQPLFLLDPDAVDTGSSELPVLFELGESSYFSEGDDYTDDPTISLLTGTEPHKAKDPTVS

[5] = inhibitors of firefly luciferase expression or activity, dose response, H4 neuroglioma cells, luminescence (AID 1990); format: functional, cell-based
HEK293 = experiment: inhibitors of LMP1-driven NF-kB reporter, dose response, cell-based, HEK293, luciferase, cherry-pick (AID 588343); format: functional; conditions: Homo sapiens
[6] = molecular target: Glyceraldehyde-3-phosphate dehydrogenase (Homo sapiens, UniProt P04406)
Sequence of Glyceraldehyde-3-phosphate dehydrogenase (P04406 whole entry): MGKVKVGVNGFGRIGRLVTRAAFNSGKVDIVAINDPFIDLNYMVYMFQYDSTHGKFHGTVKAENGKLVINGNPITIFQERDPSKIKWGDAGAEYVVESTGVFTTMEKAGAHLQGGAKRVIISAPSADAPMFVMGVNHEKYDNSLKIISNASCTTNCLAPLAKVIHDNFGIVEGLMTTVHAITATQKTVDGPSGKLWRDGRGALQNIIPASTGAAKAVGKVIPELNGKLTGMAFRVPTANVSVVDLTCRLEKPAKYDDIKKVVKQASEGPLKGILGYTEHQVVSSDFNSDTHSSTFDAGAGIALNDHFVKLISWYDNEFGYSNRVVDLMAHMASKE

[7] = cytotoxicity in HEK-293T cells, dose response, cytotoxicity control for BCR NF-kB inhibitor project, luminescence, B-cell screen hits (AID 489021); format: functional, cell-based;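 note: HEK-293T cells carrying an NF-kB luciferase reporter; cells exposed to compound for about 14 hours before viability readout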
[8] = molecular target: T2, Mannose-6-phosphate isomerase (Homo sapiens, UniProt P34949); experiment: human PMI inhibitors, high substrate, primary screen, biochemical, fluorescence intensity, high mannose 6-phosphate (AID 1220)
T2 sequence (P34949 whole entry): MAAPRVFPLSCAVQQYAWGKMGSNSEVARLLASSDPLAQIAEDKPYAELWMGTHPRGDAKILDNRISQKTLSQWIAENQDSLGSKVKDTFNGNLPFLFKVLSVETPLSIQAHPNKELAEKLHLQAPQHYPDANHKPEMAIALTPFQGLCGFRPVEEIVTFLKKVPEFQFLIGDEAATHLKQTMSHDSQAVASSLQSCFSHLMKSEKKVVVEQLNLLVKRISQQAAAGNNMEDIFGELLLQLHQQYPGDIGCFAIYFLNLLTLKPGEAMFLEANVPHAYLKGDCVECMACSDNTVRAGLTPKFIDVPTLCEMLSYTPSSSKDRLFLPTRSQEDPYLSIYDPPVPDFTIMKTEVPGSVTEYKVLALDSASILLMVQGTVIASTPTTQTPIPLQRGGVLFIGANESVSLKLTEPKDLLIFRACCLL

Protein RecA = molecular target: T3, Protein RecA (Mycobacterium tuberculosis, UniProt P9WHJ3); experiment: Fluorescence Cell-Free Homogeneous Dose Retest to Identify Inhibitors of RecA-Intein Splicing Activity. [Related pubchem assays (depositor defined):AID2097, AID2223, AID489010, AID492950]; format: functional
T3 sequence (P9WHJ3 whole entry): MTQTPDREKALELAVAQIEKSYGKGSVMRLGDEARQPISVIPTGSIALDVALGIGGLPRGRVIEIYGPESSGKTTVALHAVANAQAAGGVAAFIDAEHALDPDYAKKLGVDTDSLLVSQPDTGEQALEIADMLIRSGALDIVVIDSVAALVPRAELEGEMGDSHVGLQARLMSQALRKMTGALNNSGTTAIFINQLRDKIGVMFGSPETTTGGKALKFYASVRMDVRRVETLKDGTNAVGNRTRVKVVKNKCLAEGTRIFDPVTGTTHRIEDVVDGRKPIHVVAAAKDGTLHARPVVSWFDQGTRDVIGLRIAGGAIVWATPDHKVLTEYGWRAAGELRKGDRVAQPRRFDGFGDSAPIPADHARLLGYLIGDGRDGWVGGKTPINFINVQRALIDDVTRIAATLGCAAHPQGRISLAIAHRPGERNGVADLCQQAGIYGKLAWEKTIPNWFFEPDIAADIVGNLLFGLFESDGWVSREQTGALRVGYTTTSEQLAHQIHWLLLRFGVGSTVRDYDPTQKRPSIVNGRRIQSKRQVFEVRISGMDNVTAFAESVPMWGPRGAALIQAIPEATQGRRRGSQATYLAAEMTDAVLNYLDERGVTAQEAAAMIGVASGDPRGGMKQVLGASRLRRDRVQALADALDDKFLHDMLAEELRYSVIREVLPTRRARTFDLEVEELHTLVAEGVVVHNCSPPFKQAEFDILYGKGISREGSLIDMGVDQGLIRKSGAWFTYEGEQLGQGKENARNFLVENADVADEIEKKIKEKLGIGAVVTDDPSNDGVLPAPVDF

[9] = molecular target: T4, Replicative DNA helicase DnaB (Mycobacterium tuberculosis, UniProt P9WMR3); experiment: DnaB intein splicing inhibitors, dose response, biochemical, cell-free fluorescence (AID 449749); format: functional
T4 sequence (P9WMR3 whole entry): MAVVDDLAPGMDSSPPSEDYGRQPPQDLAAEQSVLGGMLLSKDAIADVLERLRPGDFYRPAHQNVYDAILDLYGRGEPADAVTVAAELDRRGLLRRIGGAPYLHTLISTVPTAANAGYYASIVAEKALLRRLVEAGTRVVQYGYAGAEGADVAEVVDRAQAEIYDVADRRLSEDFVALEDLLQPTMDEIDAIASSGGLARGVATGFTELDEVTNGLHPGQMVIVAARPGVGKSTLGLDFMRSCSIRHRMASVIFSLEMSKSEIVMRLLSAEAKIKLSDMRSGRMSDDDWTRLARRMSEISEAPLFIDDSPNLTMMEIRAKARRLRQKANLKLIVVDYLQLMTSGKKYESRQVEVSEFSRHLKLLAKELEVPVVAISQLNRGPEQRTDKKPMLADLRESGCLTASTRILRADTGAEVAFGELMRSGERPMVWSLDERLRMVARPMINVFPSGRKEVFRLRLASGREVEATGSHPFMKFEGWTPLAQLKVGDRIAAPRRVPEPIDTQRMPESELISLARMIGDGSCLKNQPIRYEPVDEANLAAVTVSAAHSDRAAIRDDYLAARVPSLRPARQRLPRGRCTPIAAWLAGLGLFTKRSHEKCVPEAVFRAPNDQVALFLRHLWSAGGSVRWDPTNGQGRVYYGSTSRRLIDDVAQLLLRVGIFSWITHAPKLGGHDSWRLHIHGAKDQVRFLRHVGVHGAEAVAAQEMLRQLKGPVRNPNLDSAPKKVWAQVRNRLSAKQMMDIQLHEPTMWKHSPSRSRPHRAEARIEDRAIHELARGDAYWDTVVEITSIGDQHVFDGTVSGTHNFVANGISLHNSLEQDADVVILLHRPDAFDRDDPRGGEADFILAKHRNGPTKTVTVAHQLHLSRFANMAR

[10] = molecular target: T5, Histone-lysine N-methyltransferase NSD2 (Homo sapiens, UniProt O96028); format: biochemical
T5 sequence (O96028 whole entry): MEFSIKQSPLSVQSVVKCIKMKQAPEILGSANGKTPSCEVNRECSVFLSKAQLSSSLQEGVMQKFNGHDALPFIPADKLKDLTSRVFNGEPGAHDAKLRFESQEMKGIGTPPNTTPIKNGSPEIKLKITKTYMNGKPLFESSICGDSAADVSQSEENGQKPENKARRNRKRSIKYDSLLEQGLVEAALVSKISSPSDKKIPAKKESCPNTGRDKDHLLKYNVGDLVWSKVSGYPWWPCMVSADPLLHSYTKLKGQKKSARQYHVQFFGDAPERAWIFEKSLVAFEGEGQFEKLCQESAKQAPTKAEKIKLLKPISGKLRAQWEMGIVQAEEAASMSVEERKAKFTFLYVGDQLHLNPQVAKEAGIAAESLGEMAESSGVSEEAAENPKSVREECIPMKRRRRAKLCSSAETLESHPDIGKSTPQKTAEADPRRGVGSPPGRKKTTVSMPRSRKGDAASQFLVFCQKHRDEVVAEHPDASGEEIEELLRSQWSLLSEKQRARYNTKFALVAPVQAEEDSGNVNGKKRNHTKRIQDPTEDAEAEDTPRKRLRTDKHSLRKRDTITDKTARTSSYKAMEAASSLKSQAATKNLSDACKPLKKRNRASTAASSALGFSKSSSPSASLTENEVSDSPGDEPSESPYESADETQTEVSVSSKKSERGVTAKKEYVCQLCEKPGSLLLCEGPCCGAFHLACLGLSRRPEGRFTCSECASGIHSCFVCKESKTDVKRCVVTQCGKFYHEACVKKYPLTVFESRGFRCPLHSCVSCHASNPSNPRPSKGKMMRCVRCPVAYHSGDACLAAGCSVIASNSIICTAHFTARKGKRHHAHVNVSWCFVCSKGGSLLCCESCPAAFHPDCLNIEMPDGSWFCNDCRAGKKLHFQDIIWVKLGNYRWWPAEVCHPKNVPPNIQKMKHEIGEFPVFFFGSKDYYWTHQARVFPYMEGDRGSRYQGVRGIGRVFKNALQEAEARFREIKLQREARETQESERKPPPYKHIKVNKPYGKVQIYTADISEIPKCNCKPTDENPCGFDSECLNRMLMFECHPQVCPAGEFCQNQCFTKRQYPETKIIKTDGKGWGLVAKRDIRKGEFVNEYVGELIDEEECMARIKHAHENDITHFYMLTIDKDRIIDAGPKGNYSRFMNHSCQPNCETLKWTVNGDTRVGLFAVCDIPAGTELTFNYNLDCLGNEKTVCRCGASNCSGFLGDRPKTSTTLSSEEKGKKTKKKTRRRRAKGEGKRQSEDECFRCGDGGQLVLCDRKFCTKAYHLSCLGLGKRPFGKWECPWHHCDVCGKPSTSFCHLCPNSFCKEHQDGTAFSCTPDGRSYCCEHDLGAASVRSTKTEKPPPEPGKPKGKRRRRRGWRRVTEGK

Estrogen receptor beta = Estrogen receptor beta (Homo sapiens, UniProt Q92731); experiment: ERβ–SRC-3 coactivator interaction inhibitors, confirmation, orthogonal assay, biochemical, ELISA, streptavidin-HRP readout (AID 1060)
Sequence of Estrogen receptor beta (Q92731 whole entry): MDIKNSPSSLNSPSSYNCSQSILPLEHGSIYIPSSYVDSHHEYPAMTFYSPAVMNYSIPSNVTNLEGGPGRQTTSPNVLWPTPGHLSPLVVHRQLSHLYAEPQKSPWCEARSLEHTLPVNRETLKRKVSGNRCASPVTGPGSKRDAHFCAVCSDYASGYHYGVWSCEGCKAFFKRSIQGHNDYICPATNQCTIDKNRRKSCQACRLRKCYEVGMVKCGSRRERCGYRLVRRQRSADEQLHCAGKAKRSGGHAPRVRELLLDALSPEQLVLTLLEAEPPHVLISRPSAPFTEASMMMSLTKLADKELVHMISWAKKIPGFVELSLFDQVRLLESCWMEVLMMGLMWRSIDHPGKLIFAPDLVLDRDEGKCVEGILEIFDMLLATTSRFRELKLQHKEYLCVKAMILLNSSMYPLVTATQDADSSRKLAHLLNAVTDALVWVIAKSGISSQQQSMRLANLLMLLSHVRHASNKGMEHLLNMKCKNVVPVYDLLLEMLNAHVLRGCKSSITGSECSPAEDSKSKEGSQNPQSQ

[11] = inhibitors of intracellular T. cruzi replication, confirmation, NIH3T3 host cells, beta-gal luminescence (AID 2044); format: functional, cell-based;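 note: intracellular parasites grown in NIH/3T3 mouse fibroblasts as host cells; luminescent beta-galactosidase reporter signal from transgenic T. cruzi replicating inside host cells; inhibitors lower the luminescence signal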
[12] = cytotoxicity toward NIH3T3 fibroblasts, dose response, counter-screen, cell-based, ATP luminescence, mouse fibroblasts (AID 2010); format: functional;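 note: cells exposed to compound for about 90 hours before reading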

Sequence of Luciferin 4-monooxygenase (P08659 whole entry): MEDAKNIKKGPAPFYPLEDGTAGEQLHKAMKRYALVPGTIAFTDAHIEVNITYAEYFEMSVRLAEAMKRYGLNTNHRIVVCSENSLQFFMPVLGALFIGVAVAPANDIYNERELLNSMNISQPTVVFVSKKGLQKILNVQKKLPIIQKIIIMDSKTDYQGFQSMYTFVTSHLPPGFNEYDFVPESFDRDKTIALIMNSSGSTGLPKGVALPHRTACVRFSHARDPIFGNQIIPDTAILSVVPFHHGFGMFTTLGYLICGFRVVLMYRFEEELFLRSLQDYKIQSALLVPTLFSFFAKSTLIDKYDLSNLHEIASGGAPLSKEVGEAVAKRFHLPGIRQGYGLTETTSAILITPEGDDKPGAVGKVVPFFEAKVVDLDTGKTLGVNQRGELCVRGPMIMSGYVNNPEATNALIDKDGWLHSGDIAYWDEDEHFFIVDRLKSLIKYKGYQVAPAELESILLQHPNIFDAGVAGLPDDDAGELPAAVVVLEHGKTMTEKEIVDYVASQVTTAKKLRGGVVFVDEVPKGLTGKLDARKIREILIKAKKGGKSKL

With Cc1ccc(C(=O)CSc2nnnn2C(C)C)c(C)c1 the EC50 [1] was 8.28 µM (active), the EC50 [2] was 3.7 µM (active) and the EC50 [3] was 14.7 µM (active). The EC50 (HT-1080) was > 50 µM (not active), the EC50 [4] was > 260 µM (inactive) and the EC50 [5] was 9.17 µM (active). For the same compound, the AC50 (HEK293) was 2.92 µM (active).

In the case of O=C1C(Cl)=C(N2CCN(Cc3ccccc3)CC2)C(=O)N1c1ccnc(Cl)c1, the IC50 [6] is reported as > 50 µM (inconclusive).

For COc1ccc(-c2noc(CCCC(=O)Nc3ccc(C(N)=O)cc3)n2)cc1, the IC50 [7] was > 80 µM (inactive).

With CC1=Nc2cccc3cccc(c23)N1C the IC50 [8] was > 50 µM (not active), the EC50 (Protein RecA) was > 380 µM (inactive) and the AC50 [9] was > 380 µM (inactive). For the same compound, the AC50 [10] was 1.25 µM (active).

For Cc1cc(-c2csc(N)n2)c(C)n1CCC(C)C, the EC50 [1] was 16 µM (active) and the EC50 (HT-1080) was > 50 µM (not active).

With CCc1ccc(NC(=O)CSc2nc(C)cc(O)n2)cc1 the IC50 (Estrogen receptor beta) was 48.8 µM (not active).

With CSCCC(=O)N(C)CC1CCCN(CCc2cccc(C(F)(F)F)c2)C1 (stereo not drawn) the EC50 (cells) was 0.329 µM (active), the EC50 [11] was < 0.1 µM (active) and the EC50 [12] was > 60 µM (not active).

In the case of COCc1cc(CN2CCCC(C(=O)Nc3cccc(-n4cnnn4)c3)C2)ccc1OC (stereo not drawn), the EC50 (cells) is reported as 0.061 µM (active), the EC50 [11] is reported as < 0.1 µM (active) and the EC50 [12] is reported as > 60 µM (not active).

With CC(=N)/C(C#N)=C(/O)CSc1nnnn1-c1ccccc1 the IC50 (Estrogen receptor beta) was > 50 µM (not active).
